Consider 25 compounds from patent US20230159510A1, “NOVEL PRMT5 INHIBITORS” (AMGEN INC., priority 2020, published 2023).

The test system of assay [1] is HCT116 MTAP null cells. In words: HCT116 proliferation assay, MTAP null cells (CellTiter-Glo, 6 days). It is filed as cell-based. The following applies: HCT116-MTAP null, 144 h, read-out: Protif_ HCT116-MTAP null IC50. In a few lines: (§1)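 Readout is CellTiter-Glo luminescence after 6 days of drug exposure at 37 °C. Compounds tested as 8–9 point, 3-fold dilution series starting at 1 or 10 µM, versus DMSO only, on cells in RPMI 1640 with 10% FBS.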
On the technique in general: In ATP-based viability assays light output follows the ATP content of the culture.

Assay [2] has as its target PRMT5/MEP50 (Homo sapiens, UniProt O14744). In words: MTase-Glo methyl transferase assay, Method A (Histone H4 peptide, 1 µM MTA, 24 h pre-incubation). It is filed as biochemical. The following applies: read-out: PRMT5 MTase Glo Ki (nM, Meth. A). Further details: made in house. The procedure:
Method A: The PRMT5 inhibitory activity of test compounds was determined using the MTase-Glo™ assay (Promega), which monitors the product (S-adenosyl homocysteine or SAH) of methyltransferase reactions. The PRMT5 MTase-Glo assay was conducted in a 384-well white ProxiPlate (PerkinElmer) in a total volume of 12 µL. The PRMT5 enzymatic reaction (in 4 µL) contained 10 nM PRMT5/MEP50 (produced at Amgen), 5 µM S-adenosyl methionine (SAM, Promega), 1 µM Histone H4 (1-21)-Lys(Biotin) (Anaspec), 1 µM 5′-methylthioadenosine (MTA, Sigma) and two-fold serially diluted compounds in a reaction buffer of 50 mM Tris (pH 8.0), 50 mM NaCl, 0.01% Tween 20, 0.01% BSA, and 1 mM DTT. Test compounds were pre-incubated with PRMT5/MEP50, SAM, and MTA for 24 hours before addition of Histone H4 peptide to initiate the PRMT5 reaction. The reaction was allowed to proceed for 2 hours at room temperature and was then terminated by addition of 2 µL of 3X MTase-Glo™ Reagent (Promega) and 150 µM EPZ015666 (Sigma). After a 30-minute incubation at room temperature, 6 µL of MTase-Glo™ Detection Solution (Promega) was added and the plate was incubated at room temperature for an additional 30 minutes. The light signal corresponding to the amount of SAH produced by the PRMT5 reaction was subsequently measured using an Envision multimode reader (PerkinElmer). IC50 and KI values were obtained by analyzing dose-response curves using Genedata Screener (Genedata).

Assay [3] relates to HCT116 WT cells. In words: HCT116 proliferation assay, WT cells (CellTiter-Glo, 6 days). It is filed as cell-based. To be noted: Homo sapiens, HCT-116, 144 h, read-out: Prolif_HCT116-WT IC50. In a few lines: as §1

Chain of PRMT5/MEP50 (O14744 whole entry): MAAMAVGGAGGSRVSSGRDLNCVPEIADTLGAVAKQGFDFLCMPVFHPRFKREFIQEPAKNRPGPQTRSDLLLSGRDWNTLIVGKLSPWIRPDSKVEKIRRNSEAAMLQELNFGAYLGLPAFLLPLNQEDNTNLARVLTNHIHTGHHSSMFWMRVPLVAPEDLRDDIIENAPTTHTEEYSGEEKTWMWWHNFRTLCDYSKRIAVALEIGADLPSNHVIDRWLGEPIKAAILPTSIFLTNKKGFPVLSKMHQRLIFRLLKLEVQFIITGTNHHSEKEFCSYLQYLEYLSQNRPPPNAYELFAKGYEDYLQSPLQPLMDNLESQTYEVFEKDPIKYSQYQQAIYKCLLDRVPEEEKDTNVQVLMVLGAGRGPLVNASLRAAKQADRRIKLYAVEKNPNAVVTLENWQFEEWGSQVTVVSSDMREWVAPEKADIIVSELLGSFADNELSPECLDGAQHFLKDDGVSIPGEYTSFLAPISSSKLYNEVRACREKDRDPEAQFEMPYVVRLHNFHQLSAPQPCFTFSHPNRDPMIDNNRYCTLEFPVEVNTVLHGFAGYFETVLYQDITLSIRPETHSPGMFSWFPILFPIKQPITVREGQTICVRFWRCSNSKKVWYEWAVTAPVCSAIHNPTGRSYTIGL
Chain of PRMT5/MEP50 (Q9BQA1 whole entry partner): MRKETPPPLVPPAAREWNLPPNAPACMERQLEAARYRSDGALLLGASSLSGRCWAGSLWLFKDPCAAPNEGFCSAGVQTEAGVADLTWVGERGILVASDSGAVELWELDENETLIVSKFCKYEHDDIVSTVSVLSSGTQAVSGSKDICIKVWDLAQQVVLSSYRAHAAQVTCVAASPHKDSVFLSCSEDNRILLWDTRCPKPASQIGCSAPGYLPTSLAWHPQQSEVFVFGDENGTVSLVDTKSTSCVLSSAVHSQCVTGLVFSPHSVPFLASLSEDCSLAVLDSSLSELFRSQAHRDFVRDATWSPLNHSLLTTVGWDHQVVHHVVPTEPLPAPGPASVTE

Broadly, the IC50 is the concentration that inhibits the measured activity by half. In general, Ki refers to a dissociation constant, usually derived from enzyme kinetics or from competition with a known ligand. Regarding `Cc1nc([C@@H](C)N(Cc2ccc(C(F)F)cn2)C(=O)c2ccc3nc(N)c(C)cc3c2)no1` (single isomer, unassigned) [Example 534], the IC50 is 154 nM in assay [1] and 4020 nM in assay [3]. For the same compound, the Ki in assay [2] was found to be 0.33 nM.
Consider `Cc1cc2cc(C(=O)N(Cc3ccc(C(F)(F)F)cn3)[C@H]3CCCc4nccnc43)ccc2nc1N` (single isomer, unassigned) [Example 522, 2-amino-3-methyl-N-((5 S)-5,6,7,8-tetrahydro-5-quinoxalinyl)-N-((5-(trifluoromethyl)-2-pyridinyl)methyl)-6-quinolinecarboxamide], for which the figures for the half-inhibitory concentration (IC50) in assay [1] and in assay [3] were 868 nM and 5570 nM, respectively. Moreover, the inhibition constant Ki in assay [2] stood at 49.9 nM.
For `Cc1cc2cc(C(=O)N(Cc3ccc(C(F)(F)F)cn3)[C@@H](c3ncccn3)C3CC3)cnc2nc1N` [Example 372, 7-amino-N-((R)-cyclopropyl(2-pyrimidinyl)methyl)-6-methyl-N-((5-(trifluoromethyl)-2-pyridinyl)methyl)-1,8-naphthyridine-3-carboxamide], in that order: 124 nM, 2410 nM and 0.33 nM.
For `Cc1cc2cc(C(=O)N(Cc3ccc(C(F)(F)F)nn3)[C@@H]3CCOc4cccnc43)ccc2nc1N` (single isomer, unassigned) [Example 520], in that order: 24 nM, 737 nM and 0.04 nM.
For `Cc1c(N)nc2ccc(C(=O)N(Cc3ccc(C#N)cn3)[C@H](C)c3ncccn3)cc2c1C` [Example 545, 2-amino-N-((5-cyano-2-pyridinyl)methyl)-3,4-dimethyl-N-((1R)-1-(2-pyrimidinyl)ethyl)-6-quinolinecarboxamide], in that order: 32 nM, 478 nM and 0.41 nM.
On to `CCOc1ccc(CN(C(=O)c2cnc3nc(N)c(Br)cc3c2)[C@H](C)c2ncccn2)nn1` [Example 382, 7-amino-6-bromo-N-((6-ethoxy-3-pyridazinyl)methyl)-N-((1R)-1-(2-pyrimidinyl)ethyl)-1,8-naphthyridine-3-carboxamide], for which the IC50 in assay [1] stood at 278 nM; in assay [3], 9680 nM. Moreover, in assay [2], the Ki came out at 0.16 nM.
For `COc1ccc(CN(C(=O)c2cc3cc(C)c(N)nc3cc2F)[C@H](C)c2ncccn2)nn1` (single isomer, unassigned) [Example 479], in that order: 60 nM, 1220 nM and 0.09 nM.
In the case of `Cc1cc2cc(C(=O)N(Cc3ccc(C(F)(F)F)cn3)[C@@H]3CCOc4ncccc43)ccc2nc1N` (single isomer, unassigned) [Example 459], the IC50 in assay [1] came to 78 nM; in assay [3] it was 2340 nM. In assay [2], the Ki was 0.25 nM.
For `Cc1cc2cc(C(=O)N(Cc3ccc(C(F)(F)F)cn3)[C@@H]3CCCc4ccncc43)ccc2nc1N` [Example 323, 2-amino-3-methyl-N-((8R)-5,6,7,8-tetrahydro-8-isoquinolinyl)-N-((5-(trifluoromethyl)-2-pyridinyl)methyl)-6-quinolinecarboxamide], in that order: 159 nM, 5010 nM and 0.36 nM.
For `C[C@H](c1ncccn1)N(Cc1ccc(Br)nn1)C(=O)c1cnc2nc(N)c(Br)cc2c1` [Example 350, 7-amino-6-bromo-N-((6-bromo-3-pyridazinyl)methyl)-N-((1R)-1-(2-pyrimidinyl)ethyl)-1,8-naphthyridine-3-carboxamide], in that order: 397 nM, over 10000 nM and 0.56 nM.
For `COCCN(Cc1ccc(C(F)(F)F)cn1)C(=O)c1ccc2nc(N)c(C)cc2c1` [Example 370, 2-amino-N-(2-methoxyethyl)-3-methyl-N-((5-(trifluoromethyl)-2-pyridinyl)methyl)-6-quinolinecarboxamide], in that order: 194 nM, 5620 nM and 0.79 nM.
With `Cc1cc2cc(C(=O)N(Cc3ccc(C(F)(F)F)nn3)[C@@H]3CCC[C@H]3O)ccc2nc1N` [Example 363, 2-amino-N-((1R,2R)-2-hydroxycyclopentyl)-3-methyl-N-((6-(trifluoromethyl)pyridazin-3-yl)methyl)quinoline-6-carboxamide], the IC50 turned out to be 326 nM in assay [1] and 7160 nM in assay [3]. In addition, the inhibition constant Ki in assay [2] is 0.2 nM.
For `C[C@H](c1ncccn1)N(Cc1ccc(C(F)(F)F)cn1)C(=O)c1cc2cc(Cl)c(N)nc2cn1` [Example 422, 2-amino-3-chloro-N-((1R)-1-(2-pyrimidinyl)ethyl)-N-((5-(trifluoromethyl)-2-pyridinyl)methyl)-1,7-naphthyridine-6-carboxamide], in that order: 360 nM, over 10000 nM and 0.2 nM.
For `C[C@H](c1ncccn1)N(Cc1ccc(C(F)F)cn1)C(=O)c1ccc2nc(N)c(Cl)cc2c1` [Example 381, 2-amino-3-chloro-N-((5-(difluoromethyl)-2-pyridinyl)methyl)-N-((1R)-1-(2-pyrimidinyl)ethyl)-6-quinolinecarboxamide], in that order: 194 nM, 8970 nM and 0.33 nM.
For `CO[C@@H](CN(Cc1ccc(C(F)(F)F)cn1)C(=O)c1cnc2nc(N)c(Br)cc2c1)C(F)(F)F` (single isomer, unassigned) [Example 454], in that order: 252 nM, 3940 nM and 0.15 nM.
`Cc1cc2cc(C(=O)N(Cc3ccc(C(F)(F)F)cn3)Cc3ncccc3F)c(F)cc2nc1N` [Example 310, 2-amino-7-fluoro-N-((3-fluoro-2-pyridinyl)methyl)-3-methyl-N-((5-(trifluoromethyl)-2-pyridinyl)methyl)-6-quinolinecarboxamide]: the IC50 in assay [1] worked out at 67 nM; in assay [3], 1600 nM. Also, the inhibitory constant (Ki) in assay [2] came out at 0.29 nM.
For `Cc1cc2cc(C(=O)N(CC(C)C)[C@H](C)c3ccc(C(F)(F)F)cn3)ccc2nc1N` (single isomer, unassigned) [Example 472], in that order: 889 nM, over 10000 nM and 1.04 nM.
For `Cc1cc2cc(C(=O)N(Cc3ccc(Cl)cn3)CC(C)C)ccc2nc1N` [Example 330, 2-amino-N-((5-chloro-2-pyridinyl)methyl)-3-methyl-N-(2-methylpropyl)-6-quinolinecarboxamide], in that order: 628 nM, 8570 nM and 1.87 nM.
For `COC(=O)N1CC=C(c2ccc(CN(C(=O)c3ccc4nc(N)c(C)cc4c3)[C@H](C)c3ncccn3)nc2)CC1` [Example 551, methyl 6-((((2-amino-3-methyl-6-quinolinyl)carbonyl)((1R)-1-(2-pyrimidinyl)ethyl)amino)methyl)-3’,6′-dihydro[3,4′-bipyridine]-1′(2′H)-carboxylate], in that order: 21 nM, 634 nM and 0.14 nM.
As for `Cc1cc2cc(C(=O)N(Cc3ncccc3F)[C@@H]3CCc4nc(C(F)(F)F)ccc43)ccc2nc1N` (single isomer, unassigned) [Example 463], the IC50 in assay [1] was 683 nM. Also, in assay [2], the Ki stood at 1.23 nM.
For `Cc1cc2cc(C(=O)N(Cc3ccc(Br)c(C)n3)[C@H](C)c3ncccn3)ccc2nc1N` (single isomer, unassigned) [Example 465], in that order: 24 nM and under 0.1 nM.
For `COc1cnc(CN(C(=O)c2ccc3nc(N)c(C)cc3c2)[C@H](C)c2ncccn2)cn1` (single isomer, unassigned) [Example 476], in that order: 660 nM and 0.83 nM.
For `COc1ccc(CN(C(=O)c2ccc3nc(N)c(C)cc3c2)[C@H](C)c2ncccn2)nn1` (single isomer, unassigned) [Example 517, 2-amino-N-((6-methoxy-3-pyridazinyl)methyl)-3-methyl-N-((IR)-1-(2-pyrimidinyl)ethyl)-6-quinolinecarboxamide], in that order: 73 nM and 0.07 nM.
With `CC[C@H](c1ncccn1)N(Cc1ccc(C(F)(F)F)cn1)C(=O)c1ccc2nc(N)c(C)cc2c1` (single isomer, unassigned) [Example 489], the IC50 in assay [1] came to 27 nM. Further, in assay [2], the Ki worked out at 0.06 nM.
For `COc1ccc(CN(C(=O)c2cnc3nc(N)c(Br)cc3c2)[C@H](C)c2ncccn2)nn1` (single isomer, unassigned) [Example 478], in that order: 594 nM and 0.31 nM.
